Source: patent US20140259191A1, “FISH ANESTHETIC AND METHOD” (AQUA-MOR TECHNOLOGIES LTD., priority 2011, published 2014)

How the values were obtained:
carp fish = assay: Anesthesia of carp by linalool added to tank water; format: in vivo, Cyprinus carpio; details: for time after addition of linalool until fish became relaxed / time until fish completely anesthetized: pH 7
Description: To a 100 liter tank containing 462 10-month old carp fish (Cyprinus carpio) of average weight 70 g and average body length 10 cm, having water at 25° C. at pH 7 was added a formulation containing 1% linalool. The formulation was added to the water to a linalool concentration of 75 ppm in the water. The fish became relaxed 3 minutes after addition of linalool and after 5 minutes were completely anesthetized. After 15 minutes the fish were removed to a recovery tank with fresh water. After 20 minutes in the recovery tank the fish resumed normal behavior.
To a 20 liter tank containing eight 2.5-year old carp fish of average weight 1 kg and average body length 50 cm in water at 20° C. and pH 7 was added a formulation containing 1% linalool. The formulation was added to the water to a linalool concentration of 100 ppm in the water. The fish became relaxed 2 minutes after addition of linalool and after 3 minutes were completely anesthetized. At 3 minutes the fish were removed to a recovery tank with fresh water. After 7 minutes in the recovery tank the fish resumed normal behavior.
To a 20 liter tank containing eight 1.8-year old carp fish of average weight 250 g and body length 21-24 cm in water at 20° C. and pH 7 was added a formulation containing 1% linalool. The formulation was added to the water to a linalool concentration of 50 ppm in the water. The fish became relaxed 3 minutes after addition of linalool and after 7 minutes were completely anesthetized. At 17 minutes the fish were removed to a recovery tank with fresh water. After 29 minutes in the recovery tank the fish resumed normal behavior.
To a 20 liter tank containing eight 2.2-year old carp fish of average weight 380 g and body length 30-32 cm in water at 20° C. and pH 7 was added a formulation containing 1% linalool. The formulation was added to the water to a linalool concentration of 100 ppm in the water. The fish became relaxed 2 minutes after addition of linalool and after 3 minutes were completely anesthetized. At 3 minutes the fish were removed to a recovery tank with fresh water. At 17 minutes in the recovery tank the fish resumed normal behavior.

Guppy fish = assay: Anesthesia of guppy fish by linalool or Ho Wood oil added to tank water; format: in vivo
Description: A one year old koi fish of body length 11 cm and which appeared to be healthy was placed in a 4 liter tank containing water at 25° C. and in which the water was circulated by means of aeration. A liquid a mixture containing 1 wt. % synthetic linalool (1 wt. % linalool, 5 wt. % 14R, 2 wt. % AF80 and 92 wt. % water) was added to the tank and manually mixed with the water so that the concentration of linalool in the water was 50 ppm. This was regarding as the starting time of the experiment; thereafter, observations were made regularly to determine the behavior of the fish in water. This continued until no response to external stimulation and complete loss of equilibrium were observed, at which point the fish was transferred to a recovery tank containing fresh water. The fish was placed near the air pump, and the time until the fish again swam and responded normally to external stimulation was recorded.
To a one liter tank containing five guppy fingerlings 21-30 days old of weight 0.010-0.014 g and body length 0.5 cm in water at 30° C. and pH 7 was added a formulation containing 92.5% linalool. The formulation was added to the water to a linalool concentration of 50 ppm in the water. The fish became relaxed 5 minutes after addition of linalool and after 7 minutes were completely anesthetized. At 10 minutes the fish were removed to a recovery tank with fresh water. After two minutes in the recovery tank the fish resumed normal behavior.
The experiment of Example 21 was repeated, using four 10-month old Guppy fish of respective body lengths 3, 3.5, 4 and 3 cm, and adding the Ho Wood oil to a linalool concentration of 50 ppm in the water. […] At 14.5 minutes the fish were removed to a recovery tank with clean water. After two minutes in the recovery tank they swam around and appeared to have resumed normal activity.
The experiment of Example 21 was repeated, using four 10-month old Guppy fish of respective body lengths 4, 3.5, 3.5 and 3 cm, and adding the Ho Wood oil to a linalool concentration in the water of 75 ppm instead 50 ppm. […]

common carp = assay: Five-hour sedation of common carp, linalool versus 2-phenoxyethanol; format: in vivo; details: linalool 40 ppm; for Number of fish exhibiting loss of upright position: 26° C.
Description: 2-Phenoxyethanol (2-PE) is used to sedate fish in vaccinations procedures for relatively long periods of time (3 hours). 35 common carp were placed in each of two 60-liter tanks containing water at 26° C. Into one tank was added linalool (in a formulation as described in Example 28) to a concentration of 40 ppm; into the other tank was added 2-PE to a concentration of 200 ppm. Sedation of fish was determined by observation of loss of upright position, operculum movement and response to stimulus (handling). Total exposure time was five hours, at the end of which the fish were transferred 60-liter recovery tanks containing untreated water.

catfish = assay: Anesthesia of catfish by linalool added to tank water; format: in vivo, Clarias gariepinus; details: 100 ppm linalool
Description: To a four liter tank containing […] 10-month old catfish (Clarias gariepinus) of respective weights 31 g, 14 g, 24 g and 9 g and respective body lengths 17 cm, 13 cm, 16 cm and 10 cm in water at 31° C. and pH 7 was added a formulation containing 1% linalool. The formulation was added to the water to a linalool concentration of 100 ppm in the water. The fish became relaxed 2 5 minutes after addition of linalool and after 4 minutes were completely anesthetized. At 5.5 minutes the fish were removed to a recovery tank with fresh water. After 7 minutes in the recovery tank the fish resumed normal behavior.

[1] = Example 13: 462 carp, average 70 g, 75 ppm linalool, 25° C.
[2] = Example 14: eight carp, average 1 kg, 100 ppm linalool, 20° C.
[3] = Example 15: eight carp, average 250 g, 50 ppm linalool, 20° C.
[4] = Example 16: eight carp, average 380 g, 100 ppm linalool, 20° C.
[5] = Example 17: five guppy fingerlings, 50 ppm linalool (formulation containing 92.5% linalool), 30° C., pH 7

C=CC(C)(O)CCC=C(C)C (stereo not drawn) [linalool]
time after addition of linalool until fish became relaxed (carp fish; [1]): 3 min
time until fish completely anesthetized (carp fish; [1]): 5 min
time in recovery tank until normal behavior resumed (carp fish; Example 13: carp 70 g, 75 ppm linalool, removed after 15 minutes): 20 min
time in recovery tank until normal behavior resumed (carp fish; Example 14: carp 1 kg, 100 ppm linalool, removed at 3 minutes): 7 min
time after addition of linalool until fish became relaxed (carp fish; [2]): 2 min
time until fish completely anesthetized (carp fish; [2]): 3 min
time in recovery tank until normal behavior resumed (carp fish; Example 15: carp 250 g, 50 ppm linalool, removed at 17 minutes): 29 min
time after addition of linalool until fish became relaxed (carp fish; [3]): 3 min
time until fish completely anesthetized (carp fish; [3]): 7 min
time in recovery tank until normal behavior resumed (carp fish; Example 16: carp 380 g, 100 ppm linalool, removed at 3 minutes): 17 min
time after addition of linalool until fish became relaxed (carp fish; [4]): 2 min
time until fish completely anesthetized (carp fish; [4]): 3 min
time after addition of linalool until fish became relaxed (Guppy fish; [5]): 5 min
time until fish completely anesthetized (Guppy fish; [5]): 7 min
time in recovery tank until normal behavior resumed (Guppy fish; Example 17: guppy fingerlings, 50 ppm linalool, removed at 10 minutes): two
Number of fish exhibiting loss of upright position (common carp; 35 common carp per tank, 2-PE 200 ppm, time 10:30 (start), aeration): 0
Number of fish exhibiting loss of upright position (common carp; 35 common carp per tank, 2-PE 200 ppm, time 11:00 (start 10:30), no aeration): 2
Number of fish exhibiting loss of upright position (common carp; 35 common carp per tank, 2-PE 200 ppm, time 11:40 (start 10:30), no aeration): 9
Number of fish exhibiting loss of upright position (common carp; 35 common carp per tank, 2-PE 200 ppm, time 12:35 (start 10:30), no aeration): 16
Number of fish exhibiting loss of upright position (common carp; 35 common carp per tank, 2-PE 200 ppm, time 13:35 (start 10:30), no aeration): 17
Number of fish exhibiting loss of upright position (common carp; 35 common carp per tank, 2-PE 200 ppm, time 14:30 (start 10:30), aeration): 20
Number of fish exhibiting loss of upright position (common carp; 35 common carp per tank, 2-PE 200 ppm, time 15:30 (start 10:30), aeration): 16
survival at transfer to recovery tank (common carp; 35 common carp per tank, 2-PE 200 ppm, after five hours exposure): All alive
reflex response over the 5 hours of exposure (common carp; common carp, 2-PE 200 ppm): reduced from the beginning of the trial and remained at the same level of reflex throughout the 5 hours of exposure
sedative effect between 3 and 5 hours of exposure (common carp; common carp, 2-PE 200 ppm): maintained
recovery after placement in a recovery tank (common carp; common carp, 2-PE 200 ppm, after five hours exposure): recovered quickly in few minutes and did not show signs of stress
response to external stimulation during the first 3 hours (common carp; common carp, 2-PE 200 ppm, sedation levels enabled handling): did not respond to external stimulation
loss of reflex reactivity (common carp; common carp, in contrast to 2-PE): did not completely lose reflex reactivity
time until fish completely anesthetized (catfish; Example 19: catfish 9-31 g, 31° C., pH 7): 4 min
time in recovery tank until normal behavior resumed (catfish; Example 19: catfish, removed at 5.5 minutes): 7 min
